Test results reported in ChEMBL document CHEMBL1149582, “Synthesis of penaresidin derivatives and its biological activity” (Bioorg Med Chem, 2007).
≈ marks a conversion by molar mass, not a printed value.

What was measured:
[1] = system: L1210; test: Cytotoxicity against mouse L1210 cells; format: functional, cell-based
[2] = system: KB; test: Cytotoxicity against human KB cells; format: functional, cell-based
[3] = system: A549; test: Cytotoxicity against human A549 cells; format: functional, cell-based
[4] = Cytotoxicity against human […] cells; format: functional, cell-based
[5] = system: Bacillus subtilis; test: Antibacterial activity against Bacillus subtilis […]; format: functional
[6] = system: Escherichia coli; test: Antibacterial activity against Escherichia coli ATCC 25922; format: functional
[7] = system: Micrococcus luteus; test: Antibacterial activity against Micrococcus luteus IFM 2066; format: functional
[8] = system: Staphylococcus aureus; test: Antibacterial activity against Staphylococcus aureus 209P; format: functional
[9] = system: Cryptococcus neoformans; test: Antibacterial activity against Cryptococcus neoformans IFM 46914; format: functional
[10] = system: Candida albicans; test: Antibacterial activity against Candida albicans ATCC 90028; format: functional
[11] = system: Aspergillus niger; test: Antibacterial activity against Aspergillus niger IFM 5368; format: functional

| Compound | IC50 [1] [µg/mL] | IC50 [2] [µg/mL] | IC50 [3] [µg/mL] | IC50 [4] [µg/mL] | MIC [5] [µg/mL] | MIC [6] [µg/mL] | MIC [7] [µg/mL] | MIC [8] [µg/mL] | MIC [9] [µg/mL] | MIC [10] [µg/mL] | MIC [11] [µg/mL] |
| --- | --- | --- | --- | --- | --- | --- | --- | --- | --- | --- | --- |
| CCCCCCCCCCCCCC[C@H]1N[C@@H](CO)[C@H]1O | > 10 | > 10 | 1.38 (≈ 4.61 µM) | 1.65 (≈ 5.51 µM) | – | – | – | – | – | – | – |
| CCCCCCCCCCCCCC[C@H]1N[C@H](CO)[C@H]1O | 4.5 (≈ 15 µM) | 6 (≈ 20 µM) | > 2 | 1.23 (≈ 4.11 µM) | 8.35 (≈ 27.9 µM) | > 16.7 | 4.18 (≈ 14 µM) | 16.7 (≈ 55.8 µM) | > 16.7 | > 16.7 | > 16.7 |
| CC(C)CC[C@H](O)CCCCCCCCC[C@@H]1N[C@@H](CO)[C@@H]1O | 2.9 (≈ 8.8 µM) | > 10 | > 2 | > 2 | > 16.7 | > 16.7 | > 16.7 | > 16.7 | > 16.7 | > 16.7 | > 16.7 |
| CCCCCCCCCCCCCC[C@@H]1N[C@H](CO)[C@H]1O | 4.5 (≈ 15 µM) | > 10 | 1.97 (≈ 6.58 µM) | 0.79 (≈ 2.64 µM) | 16.7 (≈ 55.8 µM) | > 16.7 | 8.35 (≈ 27.9 µM) | > 16.7 | > 16.7 | > 16.7 | > 16.7 |
| CCCCCCCCCCCCCC[C@@H]1N[C@H](CO)[C@@H]1O | 7.5 (≈ 25 µM) | > 10 | > 2 | > 2 | > 16.7 | > 16.7 | > 16.7 | > 16.7 | > 16.7 | > 16.7 | > 16.7 |
| CCCCCCCCCCCCCC[C@@H]1N[C@@H](CO)[C@@H]1O | 4.5 (≈ 15 µM) | 3.4 (≈ 11.4 µM) | 0.34 (≈ 1.14 µM) | 0.56 (≈ 1.87 µM) | 4.18 (≈ 14 µM) | > 16.7 | 1.84 (≈ 6.14 µM) | 8.35 (≈ 27.9 µM) | > 16.7 | > 16.7 | > 16.7 |
| CCCCCCCCCCCCCC[C@H]1N[C@@H](CO)[C@@H]1O | 1.6 (≈ 5.34 µM) | 3.2 (≈ 10.7 µM) | 0.22 (≈ 0.735 µM) | 0.17 (≈ 0.568 µM) | 4.18 (≈ 14 µM) | 8.35 (≈ 27.9 µM) | 4.18 (≈ 14 µM) | 8.35 (≈ 27.9 µM) | > 16.7 | > 16.7 | > 16.7 |
